According to PubChem BioAssay (NCI):
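Five concentrations, 48 hours, 96-well plates. GI50 = concentration required for 50% inhibition of growth. TGI denotes the concentration required for complete inhibition of growth.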

How the values were obtained:
Test in all cases: NCI anticancer screen, dose series, 48 h
MCF7 breast = tested on: MCF7 breast
MALME-3M melanoma = tested on: MALME-3M melanoma
NCI-H23 lung = tested on: NCI-H23 lung
MDA-N = tested on: MDA-N
BT-549 breast = tested on: BT-549 breast
T-47D breast = tested on: T-47D breast
SR leukemia = tested on: SR leukemia
SNB-78 CNS = tested on: SNB-78 CNS
KM20L2 colon = tested on: KM20L2 colon
M19-MEL melanoma = tested on: M19-MEL melanoma
HOP-18 NSCLC = tested on: HOP-18 NSCLC
DMS 114 small cell lung = tested on: DMS 114 small cell lung
XF 498 CNS = tested on: XF 498 CNS

## CCc1ccc2nc(-c3ccc(O)cc3)sc2c1
MCF7 breast
  TGI: 46.4 µM
MALME-3M melanoma
  TGI: 36.8 µM
NCI-H23 lung
  TGI: 34.1 µM
MDA-N
  TGI: 36 µM
BT-549 breast
  TGI: 31.1 µM

## CN(C)c1ccc(C(Cc2ccc3ccccc3n2)Cc2ccc3ccccc3n2)cc1
T-47D breast
  GI50: 1710 nM
  TGI: > 100 µM
MALME-3M melanoma
  GI50: 1960 nM
  TGI: > 100 µM

## N#Cc1c(N)sc2c1-c1ccccc1OC2
SR leukemia
  TGI: 47.9 µM
MCF7 breast
  TGI: > 100 µM
MALME-3M melanoma
  TGI: > 100 µM
NCI-H23 lung
  TGI: > 100 µM
MDA-N
  TGI: 67.1 µM
BT-549 breast
  TGI: > 100 µM

## CCOC(=O)C(O)(NC(=O)c1ccccc1F)C(F)(F)F (configuration not stated)
T-47D breast
  TGI: > 100 µM
SR leukemia
  TGI: > 100 µM
MCF7 breast
  TGI: > 100 µM
MALME-3M melanoma
  TGI: > 100 µM
NCI-H23 lung
  TGI: > 100 µM
MDA-N
  TGI: > 100 µM
BT-549 breast
  TGI: > 100 µM

## CCCCCCCCCCCCCC[n+]1ccc2c(C)c3c(c(C)c2c1)c1cc(O)ccc1n3CC
MALME-3M melanoma
  GI50: 233 nM
  TGI: 0.706 µM
NCI-H23 lung
  GI50: 223 nM
  TGI: 1.02 µM
BT-549 breast
  GI50: 339 nM
  TGI: 1.46 µM

## COc1cc(/C=C/C(=O)c2c(C)nc3ccccc3c2C)ccc1OCCCOc1cc2c(cc1OC)C(=O)N1CCC[C@H]1C=N2
T-47D breast
  GI50: 41 nM
SR leukemia
  GI50: 32.1 nM
NCI-H23 lung
  GI50: 19.7 nM
  TGI: 0.0459 µM
BT-549 breast
  GI50: 14.9 nM
  TGI: 0.0428 µM

## CO/N=C(\C)COc1ccc2c(=O)c(-c3ccccc3)coc2c1
T-47D breast
  GI50: 17300 nM
  TGI: 48.6 µM
MCF7 breast
  GI50: 39 µM
  TGI: > 100 µM
NCI-H23 lung
  GI50: 26400 nM
  TGI: 89 µM
BT-549 breast
  GI50: 18000 nM
  TGI: 38.8 µM

## COc1cc(C2C(C(=O)O)=C(COC(C)=O)Oc3cc4c(cc32)OCO4)cc(OC)c1OC (configuration not stated)
SNB-78 CNS
  TGI: > 100 µM
KM20L2 colon
  TGI: > 100 µM
M19-MEL melanoma
  TGI: > 100 µM
HOP-18 NSCLC
  TGI: > 100 µM
MALME-3M melanoma
  TGI: > 100 µM
DMS 114 small cell lung
  TGI: > 100 µM
NCI-H23 lung
  TGI: > 100 µM
XF 498 CNS
  TGI: > 100 µM

## CNC(=O)N(C)COC
SNB-78 CNS
  TGI: > 100 µM
KM20L2 colon
  TGI: > 100 µM
M19-MEL melanoma
  TGI: > 100 µM
HOP-18 NSCLC
  TGI: > 100 µM
SR leukemia
  TGI: > 100 µM
MALME-3M melanoma
  TGI: > 100 µM
DMS 114 small cell lung
  TGI: > 100 µM
XF 498 CNS
  TGI: > 100 µM

## O=C(O)c1cn2c3c(cc(N4CCN(CCO)CC4)cc3c1=O)SCC2
SNB-78 CNS
  TGI: > 100 µM
KM20L2 colon
  TGI: > 100 µM
M19-MEL melanoma
  TGI: > 100 µM
HOP-18 NSCLC
  TGI: > 100 µM
MCF7 breast
  TGI: > 100 µM
MALME-3M melanoma
  TGI: > 100 µM
DMS 114 small cell lung
  TGI: > 100 µM
NCI-H23 lung
  TGI: > 100 µM
XF 498 CNS
  TGI: 67.2 µM
